In patent US10351578B2, “Heterocyclic-substituted pyridinopyrimidinone derivative as CDK inhibitor and use thereof” (Shanghai Xunhe Pharmaceutical Technology Co. Ltd., priority 2016, dated 2019):

What was measured:
[1] = target: T1, CDK6 protein kinase (GST-CDK6(1-326 end)) (Homo sapiens, UniProt Q00534); test: CDK6 protein kinase activity, Caliper mobility shift assay; assay type: biochemical; details: substrate Peptide FAM-P8, 28° C. for 3 h
T1 construct: GST-CDK6(1-326 end); GST (N)
Method: (§1) Activity Assay: The CDK6 protein kinase activity was measured using the Caliper mobility shift assay (see J. Biomol. Screen, 2009, PP31). The test compound was dissolved in DMSO and diluted with a kinase buffer solution (20 mM HEPES-pH 7.5, 0.01% Triton X-100, 10 mM MgCl2, 2 mM DTT) and 5 μL of the compound at 5-fold final concentration of reaction dissolved in 10% DMSO was added in a 384-well plate. The compound-free control well was 5 μL of 10% DMSO, and the no-activity control well was 5 μL of kinase buffer. 10 μL of a 2.5-fold diluted CDK6 enzyme solution (GST-CDK6(1-326 end)) was added and incubated at room temperature for 10 min, and then 10 μL of the 2.5-fold diluted substrate solution Peptide FAM-P8 was added. The reaction was stopped by adding 25 μL of stop solution after incubation at 28° C. for 3 h, and the conversion rate data was read on a Caliper EZ Reader II (Caliper Life Sciences) and the conversion rate was converted to inhibition rate data according to above method. Among them, the inhibition rate %=(max−conversion)/(max−min)×100%.

[2] = target: T2, CDK4 protein kinase (GST-CDK4(1-303 end)) (Homo sapiens, UniProt P11802); test: CDK4 protein kinase activity, Caliper mobility shift assay; assay type: biochemical; details: substrate Peptide FAM-P8, 28° C. for 3 h
T2 construct: GST-CDK4(1-303 end); GST (N)
Method: as §1, with “CDK4” for “CDK6”, “(GST-CDK4(1-303” for “(GST-CDK6(1-326”

T2 sequence (P11802 whole entry): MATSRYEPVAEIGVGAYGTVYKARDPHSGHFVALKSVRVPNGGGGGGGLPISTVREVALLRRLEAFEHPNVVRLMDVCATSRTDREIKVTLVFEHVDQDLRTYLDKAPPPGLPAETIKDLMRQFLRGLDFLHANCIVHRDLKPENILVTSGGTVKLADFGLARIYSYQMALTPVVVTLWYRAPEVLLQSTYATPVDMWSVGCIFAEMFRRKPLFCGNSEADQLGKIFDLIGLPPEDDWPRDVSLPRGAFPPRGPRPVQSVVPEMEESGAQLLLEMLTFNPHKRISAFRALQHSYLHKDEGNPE
T2 sequence (P30281 whole entry partner): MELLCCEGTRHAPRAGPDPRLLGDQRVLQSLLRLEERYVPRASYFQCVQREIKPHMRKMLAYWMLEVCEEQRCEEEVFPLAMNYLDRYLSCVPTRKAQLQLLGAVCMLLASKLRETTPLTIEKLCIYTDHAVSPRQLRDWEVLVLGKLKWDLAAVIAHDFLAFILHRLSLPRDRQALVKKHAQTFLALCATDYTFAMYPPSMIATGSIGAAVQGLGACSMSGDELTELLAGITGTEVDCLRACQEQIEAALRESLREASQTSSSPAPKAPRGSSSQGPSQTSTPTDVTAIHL
T1 sequence (Q00534 whole entry): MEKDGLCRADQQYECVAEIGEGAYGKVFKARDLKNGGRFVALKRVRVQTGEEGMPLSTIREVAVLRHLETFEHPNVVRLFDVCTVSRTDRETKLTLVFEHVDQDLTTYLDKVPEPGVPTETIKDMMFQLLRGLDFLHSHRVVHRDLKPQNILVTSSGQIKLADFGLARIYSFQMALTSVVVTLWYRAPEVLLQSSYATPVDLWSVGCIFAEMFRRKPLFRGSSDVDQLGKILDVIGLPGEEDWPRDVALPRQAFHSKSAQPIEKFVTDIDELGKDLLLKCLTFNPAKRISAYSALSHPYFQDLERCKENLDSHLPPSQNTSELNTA
T1 sequence (P30281 whole entry partner): as the sequence (P30281 whole entry partner) above

Molecule CCN1CCN(Cc2ccc(Nc3ncc4c(n3)N(C3CCCC3)C(=O)C(C(C)=O)O4)nc2)CC1 (stereo not shown) [Compound I-26, 6-acetyl-8-cyclopentyl-2-(5-(4-ethyl-1-piperazinyl)methyl-pyridin-2-amino)-6H-pyrimido[5,4-b][1,4]oxazin-7(8H)-one] has an IC50 [1] of 100 to 500 nM and an IC50 [2] of no more than 20 nM.
Work on CC(C)N1C(=O)C(C)(C)Oc2cnc(Nc3ccc(N4CCNCC4)cn3)nc21 [Compound I-1, 6,6-Dimethyl-8-isopropyl-2-(5-(1-piperazinyl)-pyridin-2-amino)-6H-pyrimido[5,4-b][1,4]oxazin-7(8H)-one] yielded an IC50 [1] of no more than 20 nM and an IC50 [2] of no more than 20 nM.
With O=C1N(C2CCCC2)c2nc(Nc3ccc(N4CCNCC4)cn3)ncc2OC1(F)F [Compound I-12, 6,6-difluoro-8-cyclopentyl-2-(5-(1-piperazinyl)-pyridin-2-amino)-6H-pyrimido[5,4-b][1,4]oxazin-7(8H)-one] the IC50 [1] was 20 to 100 nM and the IC50 [2] was no more than 20 nM.
Molecule CC1(C)Oc2cnc(Nc3ccc(N4CCN(C5CCCCC5)CC4)cn3)nc2N(C2CCCC2)C1=O [Compound I-22, 6,6-dimethyl-8-cyclopentyl-2-(5-(4-cyclohexyl-1-piperazinyl)-pyridin-2-amino)-6H-pyrimido[5,4-b][1,4]oxazin-7(8H)-one] has an IC50 [1] of no more than 20 nM and an IC50 [2] of no more than 20 nM.
Work on CC1(C)Sc2cnc(Nc3ccc(N4CCN(C5CCCCCC5)CC4)cn3)nc2N(C2CCCC2)C1=O [Compound I-23, 6,6-dimethyl-8-cyclopentyl-2-(5-(4-cycloheptyl-1-piperazinyl)-pyridin-2-amino)-6H-pyrimido[5,4-b][1,4]thiazin-7(8H)-one] yielded an IC50 [1] of no more than 20 nM and an IC50 [2] of no more than 20 nM.
Work on CCCN1CCN(Cc2ccc(Nc3ncc4c(n3)N(C(C)C(C)C)C(=O)C(C3CCCCCC3)S4)nc2)CC1 (stereo not shown) [Compound I-19, 6-cycloheptyl-8-(3-methyl-2-butyl)-2-(5-(4-n-propyl-1-piperazinyl)methyl-pyridine-2-amino)-6H-pyrimido[5,4-b][1,4]thiazin-7(8H)-one] yielded an IC50 [1] of 20 to 100 nM and an IC50 [2] of no more than 20 nM.
In the case of CCC(CC)N1C(=O)C(C)(C)Oc2cnc(Nc3ccc(CN4CCN(CC)CC4)cn3)nc21 [Compound I-38, 6,6-dimethyl-8-(3-pentyl)-2-(5-(4-ethyl-1-piperazinyl)methyl-pyridine-2-amino)-6H-pyrimido[5,4-b][1,4]oxazin-7(8H)-one], the IC50 [1] is reported as 20 to 100 nM and the IC50 [2] is reported as no more than 20 nM.
CCN1CCN(Cc2ccc(Nc3ncc4c(n3)N(C3CCCC3)C(=O)C(C#N)O4)nc2)CC1 (stereo not shown) [Compound I-27, 6-cyano-8-cyclopentyl-2-(5-(4-ethyl-1-piperazinyl)methyl-pyridin-2-amino)-6H-pyrimido[5,4-b][1,4]oxazin-7(8H)-one] was tested, and the IC50 [1] was no more than 20 nM and the IC50 [2] was no more than 20 nM.
O=C1C(C(F)(F)F)Oc2cnc(Nc3ccc(N4CCNCC4)cn3)nc2N1C1CCCC1 (stereo not shown) [Compound I-11, 6-trifluoromethyl-8-cyclopentyl-2-(5-(1-piperazinyl)-pyridin-2-amino)-6H-pyrimido[5,4-b][1,4]oxazin-7(8H)-one] gave an IC50 [1] of 20 to 100 nM and an IC50 [2] of no more than 20 nM.
CC1(C)Oc2cnc(Nc3ccc(N4CCNCC4)cn3)nc2N(c2ccc(Cl)cc2)C1=O [Compound I-36, 6,6-dimethyl-8-(4-chlorophenyl)-2-(5-(1-piperazinyl)-pyridin-2-amino)-6H-pyrimido[5,4-b][1,4]oxazin-7(8H)-one] gave an IC50 [1] of no more than 20 nM and an IC50 [2] of no more than 20 nM.
CCC(CC)N1C(=O)C(C)(C)Oc2cnc(Nc3ccc(N4CCNCC4)cn3)nc21 [Compound I-37, 6,6-dimethyl-8-(3-pentyl)-2-(5-(1-piperazinyl)-pyridin-2-amino)-6H-pyrimido[5,4-b][1,4]oxazin-7(8H)-one] was tested, and the IC50 [1] was 20 to 100 nM and the IC50 [2] was no more than 20 nM.
CC1(C)Oc2cnc(Nc3ccc(N4CCN(C5CCC5)CC4)cn3)nc2N(C2CCCC2)C1=O [Compound I-20, 6,6-dimethyl-8-cyclopentyl-2-(5-(4-cyclobutyl-1-piperazinyl)-pyridin-2-amino)-6H-pyrimido[5,4-b][1,4]oxazin-7(8H)-one] was tested, and the IC50 [1] was no more than 20 nM and the IC50 [2] was no more than 20 nM.
O=C1N(C2CCCC2)c2nc(Nc3ccc(N4CCNCC4)cn3)ncc2OC12CCCCCC2 [Compound I-8, 8′-cyclopentyl-2′-(5-(1-piperazinyl)-pyridin-2-amino)spiro[cyclohepta-1,6′-pyrimido[5,4-b][1,4]oxazin]-7′(8′H)-one] was tested, and the IC50 [1] was 20 to 100 nM and the IC50 [2] was no more than 20 nM.
For CCC(C)(C)N1C(=O)C(C2CCCCC2)Oc2cnc(Nc3ccc(CN4CCN(C5CC5)CC4)cn3)nc21 (stereo not shown) [Compound I-18, 6-cyclohexyl-8-tert-amyl-2-(5-(4-cyclopropyl-1-piperazinyl)methyl-pyridin-2-amino)-6H-pyrimido[5,4-b][1,4]oxazin-7(8H)-one], the IC50 [1] was no more than 20 nM and the IC50 [2] was no more than 20 nM.
For CCN1CCN(Cc2ccc(Nc3ncc4c(n3)N(c3ncccn3)C(=O)C(C)(C)O4)nc2)CC1 [Compound I-31, 6,6-dimethyl-8-(2-pyrimidinyl)-2-(5-(4-ethyl-1-piperazinyl)methyl-pyridine-2-amino)-6H-pyrimido[5,4-b][1,4]oxazin-7(8H)-one], the IC50 [1] was no more than 20 nM and the IC50 [2] was no more than 20 nM.
With CC1(C)Oc2cnc(Nc3ccc(N4CCNCC4)cn3)nc2N(c2ccco2)C1=O [Compound I-32] the IC50 [1] was greater than 500 nM and the IC50 [2] was no more than 20 nM.
CCC(C)N1C(=O)C(C2CCCC2)Sc2cnc(Nc3ccc(CN4CCNCC4)cn3)nc21 (stereo not shown) [Compound I-17, 6-cyclopentyl-8-sec-butyl-2-(5-(1-piperazinyl)methyl-pyridin-2-amino)-6H-pyrimido[5,4-b][1,4]thiazin-7(8H)-one] was tested, and the IC50 [1] was greater than 500 nM and the IC50 [2] was no more than 20 nM.
O=C1N(C2CCCC2)c2nc(Nc3ccc(N4CCNCC4)cn3)ncc2OC12CCCCC2 [Compound I-7, 8′-cyclopentyl-2′-(5-(1-piperazinyl)-pyridin-2-amino)spiro[cyclohex-1,6′-pyrimido[5,4-b][1,4]oxazin]-7′(8′H)-one] showed an IC50 [1] of no more than 20 nM and an IC50 [2] of no more than 20 nM.
With CC(=O)C1Oc2cnc(Nc3ccc(N4CCNCC4)cn3)nc2N(C2CCCC2)C1=O (stereo not shown) [Compound I-9, 6-acetyl-8-cyclopentyl-2-(5-(1-piperazinyl)-pyridin-2-amino)-6H-pyrimido[5,4-b][1,4]oxazin-7(8H)-one] the IC50 [1] was 20 to 100 nM and the IC50 [2] was no more than 20 nM.
With N#CC1Oc2cnc(Nc3ccc(N4CCNCC4)cn3)nc2N(C2CCCC2)C1=O (stereo not shown) [Compound I-10, 6-cyano-8-cyclopentyl-2-(5-(1-piperazinyl)-pyridin-2-amino)-6H-pyrimido[5,4-b][1,4]oxazin-7(8H)-one] the IC50 [1] was 100 to 500 nM and the IC50 [2] was no more than 20 nM.
With CC1(C)Oc2cnc(Nc3ccc(N4CCNCC4)cn3)nc2N(C2CCCC2)C1=O [Compound I-2, 6,6-Dimethyl-8-cyclopentyl-2-(5-(1-piperazinyl)-pyridin-2-amino)-6H-pyrimido[5,4-b][1,4]oxazin-7(8H)-one] the IC50 [1] was no more than 20 nM and the IC50 [2] was no more than 20 nM.
Work on CN(C)C(=O)C1Oc2cnc(Nc3ccc(N4CCNCC4)cn3)nc2N(C2CCCC2)C1=O (stereo not shown) [Compound I-33, N,N-dimethyl-6-carboxamide-8-cyclopentyl-2-(5-(1-piperazinyl)-pyridin-2-amino)-6H-pyrimido[5,4-b][1,4]oxazin-7(8H)-one] yielded an IC50 [1] of no more than 20 nM and an IC50 [2] of no more than 20 nM.
Molecule CCN1CCN(Cc2ccc(Nc3ncc4c(n3)N(C3CCCC3)C(=O)C(C3CCC3)O4)nc2)CC1 (stereo not shown) [Compound I-14, 6-cyclobutyl-8-cyclopentyl-2-(5-(4-ethyl-1-piperazinyl)methyl-pyridin-2-amino)-6H-pyrimido[5,4-b][1,4]oxazin-7(8H)-one] has an IC50 [1] of no more than 20 nM and an IC50 [2] of no more than 20 nM.
Molecule NC(=O)C1Oc2cnc(Nc3ccc(N4CCNCC4)cn3)nc2N(C2CCCC2)C1=O (stereo not shown) [Compound I-34, 6-carboxamide-8-cyclopentyl-2-(5-(1-piperazinyl)-pyridin-2-amino)-6H-pyrimido[5,4-b][1,4]oxazin-7(8H)-one] has an IC50 [1] of no more than 20 nM and an IC50 [2] of no more than 20 nM.
In the case of CCN1CCN(Cc2ccc(Nc3ncc4c(n3)N(C3CCCC3)C(=O)C(C)(C)O4)nc2)CC1 [Compound I-3, 6,6-Dimethyl-8-cyclopentyl-2-(5-(4-ethyl-1-piperazinyl)methyl-pyridin-2-amino)-6H-pyrimido[5,4-b][1,4]oxazin-7(8H)-one], the IC50 [1] is reported as no more than 20 nM and the IC50 [2] is reported as no more than 20 nM.
CCN1C(=O)C(C)(CC)Oc2cnc(Nc3ccc(CN4CCN(C)CC4)cn3)nc21 (stereo not shown) [Compound I-16, 6-methyl-6,8-diethyl-2-(5-(4-methyl-1-piperazinyl)methyl-pyridin-2-amino)-6H-pyrimido[5,4-b][1,4]oxazin-7(8H)-one] gave an IC50 [1] of no more than 20 nM and an IC50 [2] of no more than 20 nM.
